By IC50 is commonly meant the midpoint of a concentration-inhibition curve. By fraction unbound is commonly meant free concentration divided by total concentration. Low readings indicate extensive binding, high ones weak binding. For orientation: AUC(0-t) means the area under the concentration-time curve up to a stated or last time point. The Cmax is the highest concentration seen after dosing.

Where only a bound is given, the exact number is not on record here.

Results on 18 compounds are retold here after ChEMBL document CHEMBL1641446, “Novel pyrrolo[2,1-f][1,2,4]triazin-4-amines: Dual inhibitors of EGFR and HER2 protein tyrosine kinases” (Bioorg Med Chem Lett, 2011).

For series [1], the target named is Vascular endothelial growth factor receptor 2 (Homo sapiens, UniProt P35968). The series is described as follows: Inhibition of KDR.
The target of series [2] is Epidermal growth factor receptor (Homo sapiens) (UniProt P00533). Put plainly: Inhibition of EGFR.
The nature of series [3]: Fraction unbound in BALB/c mouse serum at 10 uM by equilibrium dialysis. It is filed as ADME, cell-free.
In series [4] the target is Receptor tyrosine-protein kinase erbB-2 (Homo sapiens) (UniProt P04626). The series is described as follows: Inhibition of HER2.
Series [5] is described as follows: Drug level in BALB/c mouse at 15 mg/kg, po after 3 hrs. It counts as ADME, organism-based. More on the design: dose 15 mg/kg, route oral. Particulars: in vivo, read-out: Drug uptake; call rule not given here.
Series [6] is described as follows: Drug level in BALB/c mouse at 15 mg/kg, po after 24 hrs. It is filed as ADME, organism-based. More on the design: dose 15 mg/kg, route oral. The following applies: in vivo, read-out: Drug uptake.
The target in series [7] is Tyrosine-protein kinase Lck (Homo sapiens, UniProt P06239). Put plainly: Inhibition of LCK.
Series [8] deals with NCI-N87. The series is described as follows: Antiproliferative activity against human NCI-N87 cells. It is filed as functional, cell-based.
Series [9] in a line: AUC ( 0 to 24 hrs) in BALB/c mouse at 15 mg/kg, po. Set-up: time < 24 hr, dose 15 mg/kg, route oral. Particulars: plasma. It is filed as ADME, organism-based.
Series [10] has as its system A2780. The series is described as follows: Antiproliferative activity against human A2780 cells. It counts as functional, cell-based.
Series [11] in a line: Antitumor activity against human GEO cells xenografted in po dosed athymic mouse assessed as minimum effective dose. It is filed as functional. The following applies: read-out: MED. Background: Xenograft models place foreign cells or tissue in a host animal.
Series [12] can be described thus: Drug level in BALB/c mouse at 50 mg/kg, po after 4 hrs. It is filed as ADME, organism-based. More on the design: dose 50 mg/kg, route oral. The following applies: in vivo, read-out: Drug uptake.
For series [13], the system named is NCI-N87. The series is described as follows: Antitumor activity against human NCI-N87 cells xenografted in po dosed athymic mouse assessed as minimum effective dose administered Q1D for 14 days. The following applies: 336 h, read-out: MED.
Series [14] is described as follows: Cmax in BALB/c mouse at 50 mg/kg, po. It counts as ADME, organism-based. More on the design: dose 50 mg/kg, route oral. The following applies: in vivo.
The nature of series [15]: AUC ( 0 to 24 hrs) in BALB/c mouse at 240 mg/kg, po. The following applies: plasma. More on the design: time < 24 hr, dose 240 mg/kg, route oral. It counts as ADME, organism-based.
Series [16] in a line: Drug level in BALB/c mouse at 240 mg/kg, po after 3 hrs. It is filed as ADME, organism-based. More on the design: dose 240 mg/kg, route oral. The following applies: in vivo, read-out: Drug uptake.
Series [17] is described as follows: Drug level in BALB/c mouse at 240 mg/kg, po after 24 hrs. It is filed as ADME, organism-based. More on the design: dose 240 mg/kg, route oral. The following applies: in vivo, read-out: Drug uptake.
The mark [18] stands for this setting: Homo sapiens, NCI-N87, read-out: IC50.
[19] abbreviates: Homo sapiens, A2780, read-out: IC50.

Sequence of Receptor tyrosine-protein kinase erbB-2 (Homo sapiens) (P04626 whole entry, looked up): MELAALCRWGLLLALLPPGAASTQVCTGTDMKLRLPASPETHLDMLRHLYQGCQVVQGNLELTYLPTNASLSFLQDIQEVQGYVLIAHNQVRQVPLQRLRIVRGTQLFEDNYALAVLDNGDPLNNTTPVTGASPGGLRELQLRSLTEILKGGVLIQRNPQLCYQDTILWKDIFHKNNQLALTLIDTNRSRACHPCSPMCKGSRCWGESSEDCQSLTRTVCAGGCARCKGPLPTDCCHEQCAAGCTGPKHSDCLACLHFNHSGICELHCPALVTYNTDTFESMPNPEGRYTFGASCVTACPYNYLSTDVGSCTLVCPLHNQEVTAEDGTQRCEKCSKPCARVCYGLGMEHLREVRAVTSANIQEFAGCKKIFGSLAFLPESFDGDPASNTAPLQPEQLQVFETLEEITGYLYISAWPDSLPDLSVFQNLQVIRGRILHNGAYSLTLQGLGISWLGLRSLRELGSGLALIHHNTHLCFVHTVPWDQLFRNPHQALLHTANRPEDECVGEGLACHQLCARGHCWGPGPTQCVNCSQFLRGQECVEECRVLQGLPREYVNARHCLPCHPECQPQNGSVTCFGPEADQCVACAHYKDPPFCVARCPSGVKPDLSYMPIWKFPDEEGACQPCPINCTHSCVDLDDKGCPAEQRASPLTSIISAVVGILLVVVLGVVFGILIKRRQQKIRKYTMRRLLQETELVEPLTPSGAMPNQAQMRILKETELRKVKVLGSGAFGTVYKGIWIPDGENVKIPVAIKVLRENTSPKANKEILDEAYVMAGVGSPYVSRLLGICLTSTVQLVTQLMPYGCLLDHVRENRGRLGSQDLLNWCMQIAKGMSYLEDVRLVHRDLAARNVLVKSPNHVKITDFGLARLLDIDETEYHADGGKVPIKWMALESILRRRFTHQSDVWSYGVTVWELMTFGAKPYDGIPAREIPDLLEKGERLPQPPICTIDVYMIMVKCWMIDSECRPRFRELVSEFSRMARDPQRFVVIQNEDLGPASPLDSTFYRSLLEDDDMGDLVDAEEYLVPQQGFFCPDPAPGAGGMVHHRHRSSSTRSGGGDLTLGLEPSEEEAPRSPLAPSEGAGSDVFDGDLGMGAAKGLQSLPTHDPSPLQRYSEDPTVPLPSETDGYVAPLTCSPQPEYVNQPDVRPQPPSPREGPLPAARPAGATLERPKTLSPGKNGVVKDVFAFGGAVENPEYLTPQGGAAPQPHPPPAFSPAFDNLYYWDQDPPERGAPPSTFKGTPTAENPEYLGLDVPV
Sequence of Epidermal growth factor receptor (Homo sapiens) (P00533 whole entry, looked up): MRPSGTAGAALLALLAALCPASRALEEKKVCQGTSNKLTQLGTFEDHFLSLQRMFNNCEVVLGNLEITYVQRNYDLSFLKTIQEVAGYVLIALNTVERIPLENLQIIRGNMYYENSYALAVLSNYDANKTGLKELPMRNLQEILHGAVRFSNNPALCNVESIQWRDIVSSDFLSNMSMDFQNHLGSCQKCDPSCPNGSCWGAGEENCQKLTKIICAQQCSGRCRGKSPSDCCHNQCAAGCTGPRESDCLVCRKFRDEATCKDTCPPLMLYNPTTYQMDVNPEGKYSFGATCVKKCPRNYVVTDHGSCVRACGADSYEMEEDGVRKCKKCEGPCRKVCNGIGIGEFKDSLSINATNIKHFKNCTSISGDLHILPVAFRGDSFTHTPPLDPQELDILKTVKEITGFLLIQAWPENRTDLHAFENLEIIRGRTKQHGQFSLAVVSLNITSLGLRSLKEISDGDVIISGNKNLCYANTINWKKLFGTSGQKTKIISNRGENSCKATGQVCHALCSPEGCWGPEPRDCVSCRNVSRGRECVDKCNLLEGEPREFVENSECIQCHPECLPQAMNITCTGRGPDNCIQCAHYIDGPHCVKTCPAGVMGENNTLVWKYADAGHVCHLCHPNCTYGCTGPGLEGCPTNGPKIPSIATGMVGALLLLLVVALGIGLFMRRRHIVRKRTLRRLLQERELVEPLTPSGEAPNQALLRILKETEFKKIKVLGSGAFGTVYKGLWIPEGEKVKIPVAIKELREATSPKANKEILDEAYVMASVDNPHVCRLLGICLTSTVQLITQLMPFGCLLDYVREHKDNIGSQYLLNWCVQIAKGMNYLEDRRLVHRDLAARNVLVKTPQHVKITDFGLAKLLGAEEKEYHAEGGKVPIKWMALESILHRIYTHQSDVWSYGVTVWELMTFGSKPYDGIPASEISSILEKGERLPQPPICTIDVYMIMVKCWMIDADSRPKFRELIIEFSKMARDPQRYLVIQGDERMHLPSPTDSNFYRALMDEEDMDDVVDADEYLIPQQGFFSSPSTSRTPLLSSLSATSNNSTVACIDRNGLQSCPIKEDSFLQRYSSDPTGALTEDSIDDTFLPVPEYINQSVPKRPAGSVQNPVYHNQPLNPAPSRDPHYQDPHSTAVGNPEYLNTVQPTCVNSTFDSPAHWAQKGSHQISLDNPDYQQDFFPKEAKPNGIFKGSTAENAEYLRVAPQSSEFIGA
Sequence of Vascular endothelial growth factor receptor 2 (P35968 whole entry): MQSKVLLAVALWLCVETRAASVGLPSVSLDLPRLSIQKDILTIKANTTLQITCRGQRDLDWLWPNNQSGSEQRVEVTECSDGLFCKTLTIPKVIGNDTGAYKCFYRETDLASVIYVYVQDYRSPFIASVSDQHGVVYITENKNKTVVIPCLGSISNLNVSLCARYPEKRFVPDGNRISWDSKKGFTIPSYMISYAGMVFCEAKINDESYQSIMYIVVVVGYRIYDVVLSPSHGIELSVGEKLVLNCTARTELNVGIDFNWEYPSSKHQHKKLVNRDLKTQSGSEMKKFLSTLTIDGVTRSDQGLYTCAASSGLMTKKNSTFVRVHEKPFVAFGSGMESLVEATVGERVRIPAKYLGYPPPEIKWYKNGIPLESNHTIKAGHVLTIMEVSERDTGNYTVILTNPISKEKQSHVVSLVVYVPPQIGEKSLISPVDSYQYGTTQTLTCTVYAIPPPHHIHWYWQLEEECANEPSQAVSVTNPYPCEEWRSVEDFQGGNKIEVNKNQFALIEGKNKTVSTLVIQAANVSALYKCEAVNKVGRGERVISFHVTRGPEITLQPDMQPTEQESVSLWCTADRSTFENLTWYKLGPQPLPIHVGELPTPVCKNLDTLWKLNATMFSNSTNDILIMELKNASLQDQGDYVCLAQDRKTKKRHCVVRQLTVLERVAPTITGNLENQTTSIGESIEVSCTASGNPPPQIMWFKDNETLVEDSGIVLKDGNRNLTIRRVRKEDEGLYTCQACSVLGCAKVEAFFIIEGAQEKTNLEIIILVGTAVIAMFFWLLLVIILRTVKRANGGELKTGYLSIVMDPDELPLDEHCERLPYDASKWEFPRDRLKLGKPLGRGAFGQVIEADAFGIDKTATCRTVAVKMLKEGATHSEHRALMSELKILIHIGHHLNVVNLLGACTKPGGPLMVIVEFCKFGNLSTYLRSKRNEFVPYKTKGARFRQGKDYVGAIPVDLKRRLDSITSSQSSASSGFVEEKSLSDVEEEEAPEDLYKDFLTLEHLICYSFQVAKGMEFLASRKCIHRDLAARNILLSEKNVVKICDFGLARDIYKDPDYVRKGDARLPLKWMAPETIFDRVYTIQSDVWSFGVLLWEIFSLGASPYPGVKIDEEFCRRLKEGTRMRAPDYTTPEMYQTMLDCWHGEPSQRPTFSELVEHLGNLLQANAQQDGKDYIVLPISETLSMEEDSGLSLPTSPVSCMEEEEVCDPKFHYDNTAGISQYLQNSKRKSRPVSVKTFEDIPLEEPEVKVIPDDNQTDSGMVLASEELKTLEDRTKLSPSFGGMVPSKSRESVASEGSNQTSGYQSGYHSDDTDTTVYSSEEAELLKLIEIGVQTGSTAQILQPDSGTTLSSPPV
Sequence of Tyrosine-protein kinase Lck (P06239 whole entry): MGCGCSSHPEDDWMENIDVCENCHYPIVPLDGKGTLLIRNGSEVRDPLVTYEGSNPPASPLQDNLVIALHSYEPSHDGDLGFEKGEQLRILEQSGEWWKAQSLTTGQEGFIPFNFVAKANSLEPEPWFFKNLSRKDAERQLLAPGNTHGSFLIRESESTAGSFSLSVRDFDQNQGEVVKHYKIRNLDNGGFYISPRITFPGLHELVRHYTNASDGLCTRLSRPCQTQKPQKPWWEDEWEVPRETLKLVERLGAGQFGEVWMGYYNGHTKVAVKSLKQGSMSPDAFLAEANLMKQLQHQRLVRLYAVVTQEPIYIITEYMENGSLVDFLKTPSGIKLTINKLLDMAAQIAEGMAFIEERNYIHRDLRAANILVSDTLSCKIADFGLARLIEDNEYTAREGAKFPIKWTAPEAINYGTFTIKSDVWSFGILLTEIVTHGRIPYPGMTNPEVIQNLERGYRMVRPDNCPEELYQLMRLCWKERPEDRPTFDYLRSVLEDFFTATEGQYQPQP

Turning to `NC1CCN(Cc2ccn3ncnc(Nc4ccc(F)c(Cl)c4)c23)CC1`, the IC50 in [1] is 110 nM; in [2], 6 nM; in [4], 10 nM; in series [7] it was 370 nM; in series [8] (setting [18]), 120 nM; in series [10] (setting [19]) it was above 5 µM. The compound further displayed an unbound share (fraction unbound) at 10 µM in series [3] of 0.012. In addition, the concentration at 3 h in series [5] was 7.2 µM. For the same compound, in series [6], the concentration at 24 h was 6.8 µM. Moreover, the AUC(0-t) at 24 h in [9] worked out at 160 µM·h. The minimal effective dose in [11] stood at 15 mg/kg.
For `CC(C)Nc1ncnn2ccc(CN3CCC(N)CC3)c12`, the IC50 in series [2] was 880 nM; in series [4] it was above 1000 nM.
Consider `Cc1cccc(Nc2ncnn3ccc(CN4CCC(N)CC4)c23)c1`, for which the IC50 in [2] is 5 nM; in [4], 20 nM; in [8] (setting [18]), 140 nM; in [10] (setting [19]) it was above 5 µM. In addition, the minimal effective dose in series [11] came to 60 mg/kg.
`NC1CCN(Cc2ccn3ncnc(Nc4cccc(Br)c4)c23)CC1`: the IC50 worked out at 4 nM in series [2], 6 nM in [4], 50 nM in series [8] (setting [18]) and 2.6 µM in series [10] (setting [19]).
With `Cc1ccc(Nc2ncnn3ccc(CN4CCC(N)CC4)c23)cc1`, the IC50 is 6 nM in series [2], 50 nM in series [4], 790 nM in [8] (setting [18]) and above 5 µM in [10] (setting [19]).
For `COc1ccc(Nc2ncnn3ccc(CN4CCC(N)CC4)c23)cc1Cl`, the IC50 was 70 nM in [2], 210 nM in [4], 1210 nM in series [8] (setting [18]) and above 5 µM in series [10] (setting [19]).
Compound `NC1CCN(Cc2ccn3ncnc(Nc4ccc5c(cnn5Cc5cccc(F)c5)c4)c23)CC1` yielded an IC50 in series [2] of 22 nM. Moreover, the concentration at 4 h in series [12] turned out to be 2700 nM. In addition, the minimal effective dose in series [13] came out at 60 mg/kg. Also, the Cmax in [14] stood at 4.5 µM.
Take `NC1CCN(Cc2ccn3ncnc(Nc4cc(Cl)cc(Cl)c4)c23)CC1`: the half-maximal inhibitory concentration (IC50) in [2] is 34 nM; in [4] it was 130 nM; in series [8] (setting [18]), 3360 nM; in [10] (setting [19]), 4 µM.
As to `Cc1c(NC(=O)OC[C@@H]2COCCN2)cn2ncnc(Nc3ccc4c(cnn4Cc4cccc(F)c4)c3)c12` [AC-480], the minimal effective dose in series [13] and in series [11] was 120 mg/kg throughout.
In turn, `Fc1cccc(Cn2ncc3cc(Nc4ncnn5ccc(COC[C@@H]6CNCCO6)c45)ccc32)c1` yielded an AUC(0-t) at 24 h in series [15] of 100 µM·h. Further, the fraction unbound at 10 µM in series [3] amounted to 0.026. For the same compound, the concentration at 3 h in [16] stood at 5.8 µM. Also, the concentration at 24 h in series [17] was determined as 100 nM. Besides, the minimal effective dose in series [13] was found to be 60 mg/kg. This compound returned a peak concentration (Cmax) in series [14] of 9.5 µM.
`NC1CCN(Cc2ccn3ncnc(Nc4cccc(Cl)c4)c23)CC1`: the 50% inhibitory concentration (IC50) in series [2] is 4 nM; in [4], 9 nM; in series [8] (setting [18]), 60 nM; in series [10] (setting [19]) it was above 5 µM. The minimal effective dose in series [11] came out at 60 mg/kg.
As to `C#Cc1cccc(Nc2ncnn3ccc(COC[C@@H]4CNCCO4)c23)c1`, the IC50 in series [2] came to 20 nM; in [4], 670 nM; in series [8] (setting [18]), 4400 nM; in [10] (setting [19]), 3.9 µM.
Take `Cc1ccccc1Nc1ncnn2ccc(CN3CCC(N)CC3)c12`: the IC50 is 20 nM in series [2], 660 nM in [4], 3300 nM in [8] (setting [18]) and above 5 µM in [10] (setting [19]).
As to `Cn1ncc2cc(Nc3ncnn4ccc(CN5CCC(N)CC5)c34)ccc21`, the IC50 in series [2] was 360 nM; in [4], 950 nM; in [8] (nci-n87), “Not Active”; in [10] (a2780), “Not Active”.
With `C#Cc1cccc(Nc2ncnn3ccc(CN4CCC(N)CC4)c23)c1`, the IC50 in series [2] stood at 7 nM; in series [4], 10 nM; in series [8] (setting [18]) it was 120 nM; in series [10] (setting [19]) it was 2.3 µM. Further, the minimal effective dose in series [11] stood at 15 mg/kg.
On to `Cn1ncc2cc(Nc3ncnn4ccc(COC[C@@H]5CNCCO5)c34)ccc21`, for which the IC50 in series [2] was above 1000 nM; in [4], above 1000 nM; in series [8] (nci-n87), “Not Active”; in [10] (a2780), “Not Active”.
For `NC1CCN(Cc2ccn3ncnc(Nc4cccc(F)c4)c23)CC1`, the IC50 in series [2] is 6 nM; in series [4], 32 nM; in series [8] (setting [18]) it was 280 nM; in series [10] (setting [19]), above 5 µM.
In the case of `NC1CCN(Cc2ccn3ncnc(Nc4ccccc4)c23)CC1`, the IC50 in [8] (setting [18]) amounted to 140 nM; in series [10] (setting [19]) it was 3.7 µM.
